One series has as its system sheep treated with NE. As to the kind of experiment: TMV studies in sheep (neutrophil elastase model of acute bronchitis). Particulars: 1 μmole/kg by aerosol after neutrophil elastase (NE). It counts as in vivo. The procedure:
Test articles were administered to the pulmonary surfaces as an inhalation aerosol. For human neutrophil Elastase (HNE) studies, tracheal mucus velocity (TMV) was measured at 1 and 2 hours after HNE (but before drug); and 1, 30, 60, 90, and 120 minutes post-aerosol administration of Compound G.
The measurements of TMV were made as follows: Eight to 10 radiopaque Teflon disks (˜1 mm in diameter, 0.8 mm thick, and weighing between 1.5-2 mg) were introduced into the trachea via an endotracheal tube (ETT). The particles were insufflated by a catheter connected to a source of compressed air (flow rate of 3-4 ml/min at 50 psi). The catheter was removed following insufflation without contacting the tracheal surface. To minimize the ETT effects on TMV, the cuff was deflated throughout the study except for the period of drug delivery. The disk movements were recorded using videotaped fluoroscopy, and individual disk velocities were calculated by measuring the distance traveled by each disk over a 60-s period. A collar containing radiopaque markers of predetermined length was placed around the animal's neck, which was used as a standard to correct for magnification effects intrinsic to the fluoroscopy unit. The mean value of disk velocities was calculated for each time point. To avoid dehydration, the sheep were periodically gavaged with tap water via a nastrogastric tube. […]

A short description of series [1]: DTNB assay: rate of disulfide bond reduction. In kind it is biochemical. The arrangement: unit not given here. Particulars: 2nd order kinetic. On the procedure:
DTNB ASSAY: This assay determines the rate which a mucolytic agent can reduce a disulfide bond using 5,5-Dithiobis(2-nitrobenzoic acid). DTNB in various pH buffers and allows comparison of the kinetic rates of reducing agents. First, reducing agent stock solutions (30 mM) were made up in DMSO. Each compound stock solution was diluted, […] in 1 ml 50 mM Tris-HCl buffer, pH 7.5, and then added in a 1:1 volumetric ratio to a solution of 100 mM DTNB in 50 mM Tris-HCl buffer, pH 7.5. Max Abs412 was measured and then utilized to calculate the activity concentration. If the observed activity concentrations differed from expected activity concentrations by more than 5%, the volume was accordingly adjusted to kinetically test the rate in the next step. After having added the reducing agents, diluted in a range of pH buffer solutions (pH 6.0-7.5), to 45 mM DTNB in 50 mM Tris-HCl and measured the Abs412 for 5 min rates were calculated as a 2nd order kinetic.

Series [2] is described as follows: Elimination of inhaled NAC from the lungs in animal studies. In kind it is in vivo. Particulars: inhaled or intranasal, 14C-labeled NAC, administered by inhalation, animal studies (unpublished observation). The text has this: NAC, as a topical pulmonary therapeutic agent, is not optimal for the reduction of mucin disulfide bonds. […] For example, in the pH environment of the airway surface (measured in the range of pH 6.0 to 7.2 in CF and COPD airways), NAC exists only partially in its reactive state as a negatively charge thiolate (Jayaraman S, Song Y, Vetrivel L, Shankar L, Verkman A S. Noninvasive in vivo fluorescence measurement of airway-surface liquid depth, salt concentration, and pH. J Clin Invest. 2001; 107(3):317-24) (FIG. 3). […] The relatively low reducing activity at of NAC physiologic airway pH and a the short half-life of NAC on the lung surface provide an explanation for the lack of strong clinical evidence for effective mucus reduction in mucus obstructive diseases.

Structures can show the parent of a compound that is named as a salt.

`N=C(N)NCCCC[C@@H](N)C(=O)NCCOc1cc(CS)c(CS)cc1OCCNC(=O)[C@H](N)CCCCNC(=N)N` [Compound G, (2R,2′R)-N,N′-(2,2′-(4,5-bis(mercaptomethyl)-1,2-phenylene)bis(oxy)bis(ethane-2,1-diyl))bis(2-amino-6-guanidinohexanamide) Hydrochloride]: in the series with sheep treated with NE, the “Duration of TMV restoration post-dosing” value turned out to be 2 h. The “Tracheal mucus velocity (TMV)” value in the series on sheep treated with NE (compared with vehicle) is on record as “restored TMV to normal, pre-NE levels”. For the same compound, the “Kinetic Reaction Rates of Reduction of DTNB” value in series [1] (pH 6) was 5154.

As a reminder, the half-life is the time in which the quantity being followed falls by half. For the compound `CC(=O)N[C@@H](CS)C(=O)O` [NAC, N-acetyl cysteine, reference compound], the half-life in series [2] is around 20 min. Besides, the “Kinetic Reaction Rates of Reduction of DTNB” value in series [1] (pH 6) was found to be 10; in series [1] (pH 6.5) it was 26; in series [1] (pH 7), 69; in series [1] (pH 7.5) it was 230.

Turning to `N=C(N)NCCCC[C@@H](N)C(=O)NCCCN(CCCNC(=O)[C@H](N)CCCCNC(=N)N)CCOc1ccc(CS)c(CS)c1` [Z, (2R,2′R)-N,N′-(3,3′-(2-(3,4-bis(mercaptomethyl)phenoxy)ethylazanediyl)bis(propane-3,1-diyl))bis(2-amino-6-guanidinohexanamide)], the “Kinetic Reaction Rates of Reduction of DTNB” value in series [1] (pH 6) worked out at 7200; in series [1] (pH 6.5) it was 10420; in series [1] (pH 7), 10631; in series [1] (pH 7.5) it was 18513.

The values are drawn from US9346753B2, “Dithiol mucolytic agents” (PARION SCIENCES, INC., priority 2013, dated 2016).
